Data: patent US8691255B2, “Method of producing high alcohol content foaming compositions with silicone-based surfactants” (Deb Worldwide Healthcare Inc., priority 2005, dated 2014)

Experiment: Foam evaluation of the prepared solutions: foam produced or not, and foam description
Format: physicochemical
Settings: alone, 40% ethanol, 3% CAPB; compared with 60% v/v ethanol and less than 1.0% silicone-based surfactants
Method: Examples 1 through 12 were prepared to illustrate the ability to produce alcohol-based disinfecting formulations which can be dispensed as foams using different surfactants and a solution of water and 50% ethanol. Examples 13 through 16 illustrate increasing concentrations of a silicone-based surfactant to produce foam with 40% ethanol. Examples 17 through 32 show increasing concentrations of ethanol with different silicone-based surfactants to produce foam. Examples 33 through 36 illustrate increasing concentrations of a silicone-based surfactant to produce acceptable foam at 62% ethanol. Examples 37 through 52 illustrate the ability to produce foam using different surfactants and a solution of 70% v/v Isopropanol. All parts and percentages are expressed by weight unless otherwise indicated.
The following examples were intended to evaluate the foaming ability of different groups of Silicon surfactants with different combinations of ethanol, n-propyl alcohol and Isopropyl alcohol. They were also designed to assess the effect in the after feel as well as in the foam quality of some emollients and humectants, lipids, and other cosmetic type desired ingredients to be used with a leave-on hand sanitizer product. […]
The solutions prepared, were evaluated as to whether foam was produced or not and if so, then the foam produced was described as follows: […]

Substance: Cocamidopropyl betaine
- foam results: unable to produce as good results
